{
  "source": "patent US20080145340A1",
  "about": "“Neuroactive agents and methods of their use” (The University of Western Australia, priority 2005, published 2008)",
  "format_in_all_cases": "cell-based, rat",
  "key": {"[1]": {"system": "cortical neuronal cultures", "assay": "Differential protein expression in preconditioned neuronal cultures, 2-D gel electrophoresis (Example 1)", "conditions": "CHX 0.3 μg/ml for 24 h; MK801 1 μM for 30 min, then 12 h; versus untreated DIV 12 cultures", "description": "Cortical tissue from E18-E19 rats was dissociated in Hibernate E medium (Invitrogen, Carlsbad, Calif., USA) supplemented with 1.3 mM L-cysteine, 10 units/ml papain (ICN, Costa Mesa, Calif., USA) and 50 units/ml DNase (Sigma, St. Louis, Mo., USA) and washed in cold Dulbecco's Modified Eagle Medium (Invitrogen)/10% horse serum.\nNeurons were resuspended in Neurobasal (NB; Invitrogen)/2% B27 supplement (Invitrogen), the cell concentration was adjusted to 1.8 million neurons/2 ml and 2 ml inoculated into each well of a 6 well plate pretreated as described below.\nNeuronal cultures were maintained in a CO2 incubator (5% CO2, 95% air balance, 98% humidity) at 37° C. […]\nTotal protein was isolated from control and preconditioned neuronal cultures at the times outlined above by removing all the media from wells and washing once with phosphate-buffered saline, before the addition of lysis buffer (7M urea, 2M thiourea, 40 mM tris-HCl, 1% sulfobetaine 3-10, 2% CHAPS, 65 mM DTT, 1% Bio-Lyte carrier ampholytes pH 3-10; Bio-Rad, Hercules, Calif., USA). […] Protein content was determined by amino acid analysis using Waters AccQ Tag chemistry (Millipore Corporation, Milford, Mass., USA) as previously described (Cohen et al., 1983, in: Angeletti, R. H. (Ed.), Techniques in Protein Chemistry IV, Academic Press, San Diego). […]"}, "[2]": {"system": "cortical neuronal cultures", "assay": "Cumene hydroperoxide oxidative stress, neuronal survival by MTS assay (Example 4)", "conditions": "for neuronal survival following cumene exposure: cumene 25 μM, survival 24 h later, untreated 15%, FIG. 8A", "description": "(§1) Neurons were resuspended in Neurobasal (NB; Invitrogen) containing 2% B27 supplement (B27; Invitrogen).\n(§2) Neuronal cultures were maintained in a CO2 incubator (5% CO2, 95% air balance, 98% humidity) at 37° C."}, "[3]": {"system": "primary cortical neuronal cultures", "assay": "In vitro ischaemia/stroke model, transient oxygen glucose deprivation (Example 3)", "conditions": "protein added (0.1-100 nM) at the time of in vitro ischaemia"}, "[4]": {"system": "primary cortical neuronal cultures", "assay": "Cumene oxidative stress injury model (Example 3)", "conditions": "protein added (0.1-100 nM) at the time of cumene exposure", "excerpt": "Adenovirus vectors were used to upregulate specific proteins in primary cortical neuronal cultures. cDNA for proteins of interest was obtained by RT-PCR and cloned into pGEM. Sequence verified cDNA clones were then used to construct recombinant adenoviruses expressing genes of interest under the control of the rous sarcoma virus (RSV) promoter and the woodchuck post-transcriptional regulatory element (WPRE). The recombinant viruses also express the reporter GFP under the control of the CMV promoter. Protein of interest expression in recombinant adenoviruses was confirmed in transfected HEK and/or neuronal cultures. Control viruses consisted of an adenovirus expressing RFP, no gene (empty vector) and the anti-apoptotic gene Bcl-xl. […]\nCumene induced oxidative stress was performed by removing media from neuronal culture wells and adding 100 μl DMEM/N2 medium containing different concentrations of cumene (20-25 μM). […] Neuronal viability was measured and analysed as described above."}, "ERK1 (p44)": {"system": "ERK1 (p44)", "assay": "rhCyPA mediated ERK1/2 phosphorylation time course, Western blot densitometry", "conditions": "rhCyPA 100 nM", "description": "(§3) FIG. 7—time course of recombinant human (rh) CyPA mediated ERK1/2 phosphorylation in cortical neuronal cultures. Neuronal cultures were treated with rhCyPA (100 nM) for the indicated times. The resulting protein lysates were probed with antibody to detect phosphorylated ERK1/2 and then re-probed for total ERK1/2.\n(§4) For protein extraction, brain tissue and cultured cells were lysed in buffer (50 mM Tris-HCl pH 7.5, 100 mM NaCl, 20 mM EDTA, 0.1% SDS, 0.2% deoxycholic acid, containing Complete™ protein inhibitor, Roche), vortexed briefly and clarified by centrifugation at 4° C. Protein concentrations were determined by the Bradford assay (Biorad, USA). Equivalent amounts of protein (5-10 μg per lane) were loaded and separated on 4-12% gradient SDS poly-acrylamide Bis-Tris mini-gels, (NuPAGE; Invitrogen) and transferred to a PVDF membrane. Membranes were blocked in PBS/T containing ovalbumin (1 mg/mL) for 1 min at room temperature before washing in PBS/T and PBS.\n(§5) Membranes were incubated at 4° C. overnight in blocking solution containing primary antibody, washed and incubated in blocking solution containing HRP conjugated secondary antibody for 1 h at room temperature. Protein bands were detected using ECL Plus (Amersham, UK) and visualised by exposure to x-ray film (Hyperfilm; Amersham), scanned and quantified using NIH image. Primary antibodies used were; rabbit polyclonal anti-CyPA (1:25000; Biomol), mouse monoclonal anti-β-tubulin (0.5 μg/mL, Pharmingen, USA), mouse monoclonal anti-phospho ERK1/2 (1:5000; Santa Cruz), rabbit polyclonal anti-ERK1/2 (1:10000; Santa Cruz) and goat polyclonal anti-CD147 (1:10000; Santa Cruz). Secondary antibodies were donkey anti-rabbit IgG (1:25,000-1:50,000; Amersham), sheep anti-mouse IgG (1:10,000-1:20,000; Amersham) and rabbit anti-goat IgG (Zymed).\n(§6) To determine if exogenously applied CyPA can mediate ERK1/2 activation we exposed neuronal cultures to rhCyPA protein (100 nM) and the results are summarised in FIG. 7. Addition of rhCyPA induced a rapid phosphorylation of ERK1 and ERK2, which peaked at 5 min, before returning to basal levels."}, "ERK2 (p42)": {"system": "ERK2 (p42)", "assay": "rhCyPA mediated ERK1/2 phosphorylation time course, Western blot densitometry", "conditions": "rhCyPA 100 nM", "description": "as §3, §4, §5, §6"}, "[5]": {"system": "cortical neuronal cultures", "assay": "In vitro ischemia, neuronal survival by MTS assay (Example 4)", "conditions": "rhCyPA 100 nM; survival 24 h later; untreated 24%; FIG. 8B", "description": "as §1, §2"}},
  "data": [
    {"molecule": "C[C@@H]1C[C@@H]([C@H](O)CC2CC(=O)NC(=O)C2)C(=O)[C@@H](C)C1", "note": "[CHX, cycloheximide]", "values": [
      {"measurement": "overall change of protein expression after preconditioning", "setting": "[1]", "value": "protein down-regulation"}
    ]},
    {"molecule": "C[C@]12N[C@H](Cc3ccccc31)c1ccccc12", "note": "[MK801]", "values": [
      {"measurement": "overall change of protein expression after preconditioning", "setting": "[1]", "value": "protein down-regulation"}
    ]},
    {"molecule": "CC(C)c1ccccc1.OO", "note": "[cumene, cumene hydroperoxide, reference compound]", "values": [
      {"measurement": "cell survival after exposure to cumene", "setting": "[2]; 25 μM cumene, dose response experiment, data not shown", "value": "15-30%"}
    ]},
    {"molecule": "CyPA protein: CyPA protein suspended in PBS, added to neuronal cultures (0.1-100 nM)", "values": [
      {"measurement": "neuroprotection against in vitro ischaemia", "setting": "[3]", "value": "neuroprotective"},
      {"measurement": "neuroprotection against cumene insult", "setting": "[4]", "value": "neuroprotective"}
    ]},
    {"molecule": "rhCyPA: recombinant human cyclophilin A (rhCyPA, Biomol)", "values": [
      {"measurement": "neuronal survival following cumene exposure", "setting": "[2]; rhCyPA 10 nM", "value": 56, "unit": "%"},
      {"measurement": "neuronal survival following cumene exposure", "setting": "[2]; rhCyPA 100 nM", "value": 70, "unit": "%"},
      {"measurement": "ERK1 (p44) activation increase", "setting": "ERK1 (p44); at 5 min, FIG. 7", "value": 2.6, "unit": "fold"},
      {"measurement": "time of peak phosphorylation of ERK1", "setting": "ERK1 (p44); then returning to basal levels", "value": 5, "unit": "min"},
      {"measurement": "ERK2 (p42) activation increase", "setting": "ERK2 (p42); at 5 min, FIG. 7", "value": 3.3, "unit": "fold"},
      {"measurement": "time of peak phosphorylation of ERK2", "setting": "ERK2 (p42); then returning to basal levels", "value": 5, "unit": "min"},
      {"measurement": "neuronal survival following in vitro ischemia", "setting": "[5]", "value": 35, "unit": "%"}
    ]}
  ]
}
